Reference: patent US10969390B2, “Method for evaluating efficacy of chemoradiotherapy against squamous cell carcinoma” (NATIONAL CANCER CENTER, priority 2014, dated 2021)

Key:
[1] = system: SIM2 stably expressing lines (T.Tn-SIM2-9 and -23); assay: cisplatin long-term sensitivity test of SIM2-gene stably expressing lines, three-dimensional culturing, viable cell count; type: cell-based; details: 14 days, CDDP 5×10^−6 M, T.Tn-SIM2-9 and -23 versus T.Tn-Mock
Experimental: The SIM2 gene was introduced into TE8 obtained from RIKEN BRC and KYSE510 and T. Tn obtained from JCRB Cell Bank. The resultant was cultured in a medium containing 400 μg/ml of G-418 for approximately 2 weeks. The G418 resistant colonies were isolated and cultured. The SIM2 gene expression was confirmed by an RT-PCR method. Thus, SIM2-gene stably expressing lines were established. Cell lines in which only a GFP expression plasmid vector was introduced were prepared as control cell lines. To extract the total RNAs and evaluate the differentiation-inducing activities of the SIM2-gene stably expressing lines, the SIM2-gene stably expressing lines were each seeded into NanoCulture (registered trademark) Plate and then cultured with a normal medium for 3 days. The total RNA was extracted, and an RT-PCR method was performed. The cDNA was synthesized using SuperScript (registered trademark) III First-Strand Synthesis System for RT-PCR. […] The resultant was quantified and compared by agarose gel electrophoresis.
To evaluate the sensitivities of the SIM2-gene stably expressing lines to CDDP long-term administration, an anticancer-agent sensitivity test was conducted employing three-dimensional culturing. […] After that, the number of viable cells was counted.

[2] = system: SIM2 stably expressing lines (KYSE510-SIM2-27 and -37, TE8-SIM2-2 and -3, T.Tn-SIM2-9 and -23) of esophageal squamous cell carcinoma cell lines; assay: anticancer-agent sensitivity test of SIM2-gene stably expressing lines, two-dimensional culturing, viable cell count (trypan blue); type: cell-based; details: for sensitivities to anticancer agents of SIM2 stably expressing lines in comparison with control-vector introduced lines: two-dimensional culture, 3 days, CDDP 2, 5, 10 μM, 5-FU 10 μM, DTX 1 nM, versus KYSE510-Mock, TE8-Mock, T.Tn-Mock
Experimental: The SIM2 gene was introduced into TE8 obtained from RIKEN BRC and KYSE510 and T. Tn obtained from JCRB Cell Bank. The resultant was cultured in a medium containing 400 μg/ml of G-418 for approximately 2 weeks. The G418 resistant colonies were isolated and cultured. The SIM2 gene expression was confirmed by an RT-PCR method. Thus, SIM2-gene stably expressing lines were established. Cell lines in which only a GFP expression plasmid vector was introduced were prepared as control cell lines. To extract the total RNAs and evaluate the differentiation-inducing activities of the SIM2-gene stably expressing lines, the SIM2-gene stably expressing lines were each seeded into NanoCulture (registered trademark) Plate and then cultured with a normal medium for 3 days. The total RNA was extracted, and an RT-PCR method was performed. The cDNA was synthesized using SuperScript (registered trademark) III First-Strand Synthesis System for RT-PCR. The diluted cDNA was mixed with AccuPrime (registered trademark) Taq DNA Polymerase System (Invitrogen), primers, and nuclease-free water, and amplified using GeneAmp (registered trademark) PCR System 9700 (Applied Biosystems Inc.). The resultant was quantified and compared by agarose gel electrophoresis.
To evaluate the sensitivities of the SIM2-gene stably expressing lines to cisplatin (CDDP), 5-fluorouracil (5-FU), and docetaxel (DTX), an anticancer-agent sensitivity test was conducted. The SIM2-gene stably expressing lines were each seeded into a 6-well plate, cultured with a normal medium for 1 day, and then cultured with a normal medium or a medium supplemented with CDDP (2 μM, 5 μM, 10 μM), 5-FU (10 μM), or DTX (1 nM) for 3 days. After the chemical treatment was completed, the cells were collected using 0.25% trypsin/EDTA and stained with trypan blue. After that, the number of viable cells was counted.

Question: For `N.N.[Cl][Pt][Cl]` [cisplatin], which “sensitivities to CDDP of SIM2 stably expressing lines in comparison with control-vector introduced line” value [1] is on record?
Answer: remarkably increased

Question: What about the “CDDP effect in 3 days (two-dimensional culturing)” value ([2]; concentration near IC50, 3 days, FIG. 6) of the same compound?
Answer: significant but small

Question: And the “sensitivities to anticancer agents of SIM2 stably expressing lines in comparison with control-vector introduced lines” value (from here on “sensitivities to anticancer agents”) [2]?
Answer: increased

Question: For `O=c1[nH]cc(F)c(=O)[nH]1` [5-fluorouracil], which “sensitivities to anticancer agents” value [2] is on record?
Answer: increased

Question: Which “sensitivities to anticancer agents” value [2] does the source give for `CC(=O)O[C@@]12CO[C@@H]1C[C@H](O)[C@@]1(C)C(=O)[C@H](O)C3=C(C)[C@@H](OC(=O)[C@H](O)[C@@H](NC(=O)OC(C)(C)C)c4ccccc4)C[C@@](O)([C@@H](OC(=O)c4ccccc4)[C@H]21)C3(C)C` [docetaxel] here?
Answer: increased
